The target in experiment [1] is 5-hydroxytryptamine receptor 1A (Homo sapiens, UniProt P08908). Briefly: GPCRScan assay: inhibition of 5-HT1A. Details: radioligand conc. used [nm] 0.5 – 1.0, parental cells stable CHO.
The next experiment addresses Mu-type opioid receptor (Homo sapiens, UniProt P35372). The experiment can be described thus: GPCRScan assay: inhibition of MOR. Details: radioligand conc. used [nm] 1.0 – 2.0, parental cells stable HEK.
The target in experiment [2] is 5-hydroxytryptamine receptor 6 (Homo sapiens) (UniProt P50406). Conditions: Compound concentration 10.0 uM; call rule not given here.
Chain of 5-hydroxytryptamine receptor 6 (Homo sapiens) (P50406 whole entry): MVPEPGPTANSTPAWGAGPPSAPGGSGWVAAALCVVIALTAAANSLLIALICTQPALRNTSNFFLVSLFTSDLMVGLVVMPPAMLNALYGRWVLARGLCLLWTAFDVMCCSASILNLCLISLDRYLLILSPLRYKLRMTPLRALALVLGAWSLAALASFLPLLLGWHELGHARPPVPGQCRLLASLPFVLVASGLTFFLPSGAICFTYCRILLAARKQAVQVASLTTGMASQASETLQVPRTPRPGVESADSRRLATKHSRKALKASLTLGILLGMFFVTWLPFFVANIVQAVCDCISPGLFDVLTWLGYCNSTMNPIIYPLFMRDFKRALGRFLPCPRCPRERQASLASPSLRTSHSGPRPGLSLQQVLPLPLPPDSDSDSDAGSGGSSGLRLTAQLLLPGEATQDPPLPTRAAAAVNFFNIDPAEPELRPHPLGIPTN
The target of experiment [3] is Alpha-1D adrenergic receptor (Homo sapiens) (UniProt P25100). As to conditions: Compound concentration 10.0 uM.
In experiment [4] the target is Calcium/calmodulin-dependent protein kinase type 1B (Homo sapiens, UniProt Q6P2M8). Briefly: Inhibition of PNCK at compound concentration of 10.0 uM using the ScanMax (DiscoverX).
Chain of Calcium/calmodulin-dependent protein kinase type 1B (Q6P2M8 whole entry): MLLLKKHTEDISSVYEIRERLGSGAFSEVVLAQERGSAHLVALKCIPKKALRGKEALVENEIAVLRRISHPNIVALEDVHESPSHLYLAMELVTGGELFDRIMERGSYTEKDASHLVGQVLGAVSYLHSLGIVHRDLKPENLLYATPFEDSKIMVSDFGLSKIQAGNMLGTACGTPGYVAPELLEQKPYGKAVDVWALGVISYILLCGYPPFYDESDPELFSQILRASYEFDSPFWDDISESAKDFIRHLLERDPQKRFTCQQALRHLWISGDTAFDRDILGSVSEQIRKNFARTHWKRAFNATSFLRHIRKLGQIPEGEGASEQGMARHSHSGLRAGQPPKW
The target of experiment [5] is Death-associated protein kinase 3 (Homo sapiens, UniProt O43293). Briefly: Inhibition of DAPK3 at compound concentration of 10.0 uM using the ScanMax (DiscoverX).
For experiment [6], the target named is Serine/threonine-protein kinase SIK1 (Homo sapiens, UniProt P57059). The experiment can be described thus: Inhibition of SIK1 at compound concentration of 10.0 uM using the ScanMax (DiscoverX).
For experiment [7], the target named is Adenosine receptor A2a (Homo sapiens) (UniProt P29274). The experiment can be described thus: Adenosine A 2A receptor (h) CEREP ligand profiling. As to conditions: Compound concentration 10.0 uM.
Experiment [8] concerns the target Adenosine receptor A3 (Homo sapiens) (UniProt P0DMS8). The experiment can be described thus: Adenosine A 3 receptor (h) CEREP ligand profiling. Conditions: Compound concentration 10.0 uM.
Experiment [9] concerns the target Adrenergic receptor alpha-2 (Homo sapiens) (UniProt P08913+P18825+P18089). Briefly: alpha2-adrenoceptor (non-selective) CEREP ligand profiling. Format: protein assay. As to conditions: Compound concentration 10.0 uM.
Experiment [10] has as its target Gastrin/cholecystokinin type B receptor (Homo sapiens) (UniProt P32239). The experiment can be described thus: CholecystokininB receptor (h) CEREP ligand profiling. Conditions: Compound concentration 10.0 uM.
Experiment [11] addresses D(1A) dopamine receptor (Homo sapiens) (UniProt P21728). The experiment can be described thus: Dopamine D1 receptor (h) CEREP ligand profiling. Conditions: Compound concentration 10.0 uM.
The target of experiment [12] is D(3) dopamine receptor (Homo sapiens) (UniProt P35462). The experiment can be described thus: Dopamine D3 receptor (h) CEREP ligand profiling. Conditions: Compound concentration 10.0 uM.
Chain of D(3) dopamine receptor (Homo sapiens) (P35462 whole entry): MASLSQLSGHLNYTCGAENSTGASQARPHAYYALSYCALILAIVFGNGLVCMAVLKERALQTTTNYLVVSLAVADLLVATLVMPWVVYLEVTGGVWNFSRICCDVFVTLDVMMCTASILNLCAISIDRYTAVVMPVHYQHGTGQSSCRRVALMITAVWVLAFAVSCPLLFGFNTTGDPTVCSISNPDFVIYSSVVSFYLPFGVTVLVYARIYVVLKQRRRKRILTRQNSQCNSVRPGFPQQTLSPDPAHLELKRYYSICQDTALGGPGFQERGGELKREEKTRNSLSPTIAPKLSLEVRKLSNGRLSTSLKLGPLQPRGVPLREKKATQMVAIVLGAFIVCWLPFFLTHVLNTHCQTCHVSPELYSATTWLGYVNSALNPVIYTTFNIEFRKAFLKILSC
Experiment [13] has as its target D(1B) dopamine receptor (Homo sapiens) (UniProt P21918). Briefly: Dopamine D5 receptor (h) CEREP ligand profiling. As to conditions: Compound concentration 10.0 uM.
Experiment [14] addresses Melatonin receptor type 1A (Homo sapiens) (UniProt P48039). Briefly: Melatonin ML1 receptor CEREP ligand profiling. Conditions: Compound concentration 10.0 uM.
Experiment [15] concerns the target Muscarinic acetylcholine receptor M3 (Homo sapiens) (UniProt P20309). The experiment can be described thus: Muscarinic M3 receptors (h) CEREP ligand profiling. Conditions: Compound concentration 10.0 uM.
Experiment [16] concerns the target Kappa-type opioid receptor (Homo sapiens, UniProt P41145). The experiment can be described thus: kappa-Opioid receptor (h) CEREP ligand profiling. Conditions: Compound concentration 10.0 uM.
Experiment [17] concerns the target Thromboxane A2 receptor (Homo sapiens) (UniProt P21731). Briefly: Thromboxane A2/ prostaglandin H2 receptors CEREP ligand profiling. Conditions: Compound concentration 10.0 uM.
In experiment [18] the target is P2X receptor (Rattus norvegicus) (UniProt P51579+P49653+P51578+Q64663+P47824+P51577+P49654). Briefly: P2X-purinergic receptor CEREP ligand profiling. As to conditions: Compound concentration 10.0 uM. The experiment is classed as protein assay.
Experiment [19] deals with P2Y receptor (Homo sapiens) (UniProt Q9H244+P51582+P47900+P41231+Q15391+Q15077+Q96G91+Q9BPV8). The experiment can be described thus: P2Y-purinergic receptor CEREP ligand profiling. The experiment is classed as protein assay. Conditions: Compound concentration 10.0 uM.
Experiment [20] has as its target 5-hydroxytryptamine receptor 2A (Homo sapiens) (UniProt P28223). The experiment can be described thus: 5-Hydroxytryptamine2A (h) CEREP ligand profiling. As to conditions: Compound concentration 10.0 uM.
For experiment [21], the target named is 5-hydroxytryptamine receptor 7 (Homo sapiens) (UniProt P34969). Conditions: Compound concentration 10.0 uM.
Chain of 5-hydroxytryptamine receptor 7 (Homo sapiens) (P34969 whole entry): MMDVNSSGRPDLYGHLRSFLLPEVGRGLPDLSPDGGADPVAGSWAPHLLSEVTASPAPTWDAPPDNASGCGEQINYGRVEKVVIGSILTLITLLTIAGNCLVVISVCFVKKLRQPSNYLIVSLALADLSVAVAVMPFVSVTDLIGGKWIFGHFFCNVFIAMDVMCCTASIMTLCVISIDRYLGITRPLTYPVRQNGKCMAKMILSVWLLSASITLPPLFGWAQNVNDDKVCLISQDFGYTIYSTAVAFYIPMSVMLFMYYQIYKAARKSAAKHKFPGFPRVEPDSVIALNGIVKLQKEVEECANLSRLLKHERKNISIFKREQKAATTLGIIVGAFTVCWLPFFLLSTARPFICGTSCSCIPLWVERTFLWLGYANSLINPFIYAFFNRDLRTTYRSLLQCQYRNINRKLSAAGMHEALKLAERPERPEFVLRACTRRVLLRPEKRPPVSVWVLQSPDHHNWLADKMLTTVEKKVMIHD
For experiment [22], the target named is Muscarinic acetylcholine receptor M4 (Homo sapiens) (UniProt P08173). Conditions: Compound concentration 10.0 uM.
Chain of Muscarinic acetylcholine receptor M4 (Homo sapiens) (P08173 whole entry): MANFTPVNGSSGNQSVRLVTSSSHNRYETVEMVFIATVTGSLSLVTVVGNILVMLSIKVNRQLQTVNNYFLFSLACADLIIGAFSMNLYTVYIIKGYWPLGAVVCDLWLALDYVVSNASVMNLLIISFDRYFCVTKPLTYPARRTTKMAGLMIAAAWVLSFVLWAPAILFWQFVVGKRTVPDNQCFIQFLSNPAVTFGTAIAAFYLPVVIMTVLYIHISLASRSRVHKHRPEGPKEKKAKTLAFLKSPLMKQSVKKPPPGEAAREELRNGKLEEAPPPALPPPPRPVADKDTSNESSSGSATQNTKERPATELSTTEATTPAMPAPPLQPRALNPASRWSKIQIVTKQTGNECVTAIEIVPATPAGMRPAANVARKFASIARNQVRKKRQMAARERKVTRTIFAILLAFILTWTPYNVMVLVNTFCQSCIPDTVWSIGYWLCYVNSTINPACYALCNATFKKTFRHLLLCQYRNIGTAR
Experiment [23] deals with Endothelin receptor type B (Homo sapiens) (UniProt P24530). Conditions: Compound concentration 10.0 uM.

One may read the Ki as a measure of affinity in units of concentration, obtained from inhibition or displacement. A word on the inhibition: it is the relative decrease from the control value, in per cent. As usually defined, the Kd is the free concentration of one partner at which half of the binding sites on the other are occupied at equilibrium, for simple one-to-one binding.

Where only a bound is given, the exact number is not on record here.

Chain of Gastrin/cholecystokinin type B receptor (Homo sapiens) (P32239 whole entry): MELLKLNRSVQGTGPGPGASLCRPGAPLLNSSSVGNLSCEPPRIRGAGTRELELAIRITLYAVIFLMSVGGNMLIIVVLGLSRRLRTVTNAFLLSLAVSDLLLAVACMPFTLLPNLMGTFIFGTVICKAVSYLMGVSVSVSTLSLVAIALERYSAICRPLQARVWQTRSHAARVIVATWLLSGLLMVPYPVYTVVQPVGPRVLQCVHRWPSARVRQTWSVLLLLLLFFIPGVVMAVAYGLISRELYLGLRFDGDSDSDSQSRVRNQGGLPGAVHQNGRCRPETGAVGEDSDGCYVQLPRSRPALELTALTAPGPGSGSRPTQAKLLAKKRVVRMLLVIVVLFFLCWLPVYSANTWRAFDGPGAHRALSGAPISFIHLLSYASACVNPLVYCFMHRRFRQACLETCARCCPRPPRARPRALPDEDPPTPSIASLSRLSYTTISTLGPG
Chain of 5-hydroxytryptamine receptor 1A (P08908 whole entry): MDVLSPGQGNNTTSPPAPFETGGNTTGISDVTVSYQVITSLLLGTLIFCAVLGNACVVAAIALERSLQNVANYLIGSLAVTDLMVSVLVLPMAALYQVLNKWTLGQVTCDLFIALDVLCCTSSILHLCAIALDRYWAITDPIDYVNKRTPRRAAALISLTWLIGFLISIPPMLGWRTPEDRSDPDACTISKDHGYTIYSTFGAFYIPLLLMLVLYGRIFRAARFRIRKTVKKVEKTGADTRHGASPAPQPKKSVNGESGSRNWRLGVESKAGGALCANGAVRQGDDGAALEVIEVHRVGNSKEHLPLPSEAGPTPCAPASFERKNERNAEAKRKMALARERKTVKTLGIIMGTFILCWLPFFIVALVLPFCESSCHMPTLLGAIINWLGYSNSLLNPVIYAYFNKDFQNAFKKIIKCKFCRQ
Chain of Adenosine receptor A3 (Homo sapiens) (P0DMS8 whole entry): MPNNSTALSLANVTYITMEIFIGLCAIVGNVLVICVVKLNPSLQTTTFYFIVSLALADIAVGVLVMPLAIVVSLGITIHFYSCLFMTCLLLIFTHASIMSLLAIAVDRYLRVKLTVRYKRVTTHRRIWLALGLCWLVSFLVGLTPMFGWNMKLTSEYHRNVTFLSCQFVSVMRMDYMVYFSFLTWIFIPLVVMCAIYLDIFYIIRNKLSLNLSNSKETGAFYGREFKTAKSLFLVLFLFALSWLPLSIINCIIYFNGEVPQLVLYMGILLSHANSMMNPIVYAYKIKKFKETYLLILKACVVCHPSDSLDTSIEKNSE
Chain of Thromboxane A2 receptor (Homo sapiens) (P21731 whole entry): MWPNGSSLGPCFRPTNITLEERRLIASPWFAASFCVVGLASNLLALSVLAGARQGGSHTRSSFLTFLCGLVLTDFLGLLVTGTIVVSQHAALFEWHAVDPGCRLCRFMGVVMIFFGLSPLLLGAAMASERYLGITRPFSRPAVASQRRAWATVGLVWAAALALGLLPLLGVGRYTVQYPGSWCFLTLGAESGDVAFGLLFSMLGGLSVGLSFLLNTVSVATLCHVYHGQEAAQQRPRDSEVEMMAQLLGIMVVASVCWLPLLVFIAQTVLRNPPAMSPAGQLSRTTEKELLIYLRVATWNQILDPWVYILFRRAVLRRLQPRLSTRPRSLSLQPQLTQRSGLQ
Chain of Melatonin receptor type 1A (Homo sapiens) (P48039 whole entry): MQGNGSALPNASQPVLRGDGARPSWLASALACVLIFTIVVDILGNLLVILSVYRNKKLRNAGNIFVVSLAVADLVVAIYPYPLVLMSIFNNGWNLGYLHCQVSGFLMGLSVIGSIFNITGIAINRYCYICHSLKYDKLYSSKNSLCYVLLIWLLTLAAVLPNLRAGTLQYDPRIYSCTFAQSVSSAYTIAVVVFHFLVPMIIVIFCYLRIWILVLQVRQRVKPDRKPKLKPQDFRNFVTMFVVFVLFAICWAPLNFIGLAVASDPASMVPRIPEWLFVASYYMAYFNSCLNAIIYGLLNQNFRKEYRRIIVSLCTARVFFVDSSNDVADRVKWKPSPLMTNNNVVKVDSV
Chain of 5-hydroxytryptamine receptor 2A (Homo sapiens) (P28223 whole entry): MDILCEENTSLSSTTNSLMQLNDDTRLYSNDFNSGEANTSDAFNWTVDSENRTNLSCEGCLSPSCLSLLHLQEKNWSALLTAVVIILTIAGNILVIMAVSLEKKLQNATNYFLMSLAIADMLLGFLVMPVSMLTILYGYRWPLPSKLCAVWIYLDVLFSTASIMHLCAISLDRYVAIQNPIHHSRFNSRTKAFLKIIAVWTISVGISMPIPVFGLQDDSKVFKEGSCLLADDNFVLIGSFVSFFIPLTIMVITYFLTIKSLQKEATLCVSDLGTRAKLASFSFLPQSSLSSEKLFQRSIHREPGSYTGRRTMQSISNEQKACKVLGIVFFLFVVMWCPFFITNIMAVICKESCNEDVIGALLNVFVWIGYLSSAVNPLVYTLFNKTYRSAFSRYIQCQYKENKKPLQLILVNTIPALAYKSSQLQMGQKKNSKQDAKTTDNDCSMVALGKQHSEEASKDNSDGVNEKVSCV
Chain of Mu-type opioid receptor (P35372 whole entry): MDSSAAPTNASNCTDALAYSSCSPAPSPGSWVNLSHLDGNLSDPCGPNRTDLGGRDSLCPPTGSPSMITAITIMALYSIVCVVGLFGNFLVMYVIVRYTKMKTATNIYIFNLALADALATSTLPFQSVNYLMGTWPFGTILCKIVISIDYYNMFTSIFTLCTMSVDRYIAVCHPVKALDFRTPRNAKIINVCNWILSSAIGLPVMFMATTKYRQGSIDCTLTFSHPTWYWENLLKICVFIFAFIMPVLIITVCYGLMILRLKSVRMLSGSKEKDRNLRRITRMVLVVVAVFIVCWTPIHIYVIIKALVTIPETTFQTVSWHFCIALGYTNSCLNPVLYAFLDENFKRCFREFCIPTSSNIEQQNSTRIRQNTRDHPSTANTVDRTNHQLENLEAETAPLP

As to `CCCCN(CCCC)C(=O)CN1C[C@@H](c2cc(OC)c3c(c2)OCO3)[C@H](C(=O)O)[C@H]1CC(C)(C)CCC` [A-545], the Ki turned out to be 189 nM in [1] and 2780 nM on Mu-type opioid receptor. Further, the figures for the inhibition in experiment [2] and in [3] were 33.5% and 6.55%, respectively.

Take `CCCCN(CCCC)C(=O)CN1C[C@H](c2cc(OC)c3c(c2)OCO3)[C@@H](C(=O)O)[C@@H]1CC(C)(C)CCC` [ABT-546]: the Kd in experiment [4], in experiment [5] and in [6] was > 10000 nM (not active) each time. The inhibition is less than 10% in experiment [7]; 32% in experiment [8]; 18% in [9]; less than 10% in experiment [10]; 14% in experiment [11]; less than 10% in [12]. Besides, the inhibition in experiment [13] was less than 10%; in experiment [14], 12%; in experiment [15], less than 10%; in experiment [16], 28%; in experiment [17] it was 16%; in [18], 37%. Besides, the inhibition is less than 10% in [19]; less than 10% in experiment [20]; -2.24% in experiment [21]; 8.5% in experiment [22]; 56% in experiment [23].
